How the values were obtained:
[1] = Scavenging of sodium hypochlorite followed by 31P NMR; settings: 5 mM in water, 6 mM NaOCl, immediately after exposure
Method: ROS reaction with AMTP were recorded by ^31 P NMR spectra. ^31 P spectra were referenced to 1% H3 PO4 in D2 O and used as an external standard.
Compound B (5 mM in water) was introduced into 6 mM sodium hypochlorite.

Human neutrophils (PMNs) = test: Chemiluminescence of PMNs activated by cationized streptococci; format: cell-based
Method: Human neutrophils (PMNs) were isolated from freshly drawn human blood according to already published procedures [Ginsburg et al., ibid.].
Chemiluminescence was measured in activated PMNs at 37° C. in a LUMAC/3M BIOCONTER M2010 connected to a linear recorder. PMNs (3*10^5 -2*10^6 /ml) were pipetted into plastic cuvettes, containing 1 ml HBSS, luminol (5*10^-5 M) and washed Streptococci 20 μl/ml (ten milliliters of a saline-washed suspension of group A Streptococci type 3 strain C203S of an optical density of 5.0 at 550 nm that was treated for 15 min at 37° C. with 100 μg/ml of poly L-histidine (PHSTD)HCL mol wt 23,000). The cationized suspension was then washed in normal saline and resuspended to the original volume. The cuvettes were mixed over a mechanical vortex and the chemiluminescence was immediately monitored until the peak CL was reached.
Modulation of chemiluminescence response was achieved by employing AMTP (compound B) molecules in various concentrations.
Two experiments were done. In the first experiment with 3-4*10^5 cells/ml, a concentration of less than 1 mM of compound B was required to quench 90% of light production. Control 1 in FIG. 13 represents neutrophils treated with streptococcus alone (14,000-17,000 light units at the peak), Spontaneous light production measurements were 1,400-2,000 light CPM. In the second experiment Control 2 represents 1.5*10^6 cells per 1 ml HBSS activation of the cells by cationized streptococcus produced between 50,000-63,000 light units at the peak. 8 mM of compound B reduced the light measurements to the base level of 3500 light units.

[2] = Lipid hydroperoxides in partially oxidized SUV liposomes; settings: 5 mM, after 24 h
Method: SUV liposomes were prepared from egg lecitin at 10% lipid concentration in a 50 ml HEPES buffer pH=6.9 according to already published procedures [Lichtenberg, D. and Barenholz. Y. (1988) Methods of Biochemical Analysis 33:337-462].
Lipid hydroperoxides were monitored by a modified micromolar sensitive spectroscopic method [Siddiqi, A. M. and Tappel, A. L. (1955) Chemist Analyst 44:52]. 50λ of lipids (liposomes or emulsion) were dissolved in 1 ml ethanol. 50λ of 50% potassium iodide solution were then added and the mixture was incubated for half an hour in the dark. The developed color was read in a spectrophotometer at 400 nm.
SUV Liposomes (12.5 mM) with certain degrees of oxidation were incubated with 5 mM AMTP molecules for period of 24 h. Peroxidation number (PN) was measured with potassium iodide in ethanol. AMTPs were able to decompose lipid hvdroperoxide and to reduce the peroxidation number (PN).

[3] = Superoxide radical assay (xanthine/xanthine oxidase, cyt C reduction)
Method: Superoxide radicals were produced from reactions of xanthine/xanthine oxidase [Mccord, J. M. and Fridovich I. (1969) J. Biol. Chem. 244:6049-6055]. The enzyme unit was adjusted to produce a linear flux of superoxide radicals which gave a slope of 0.12 OD/min at 550 nm. by reduction of cyt-C.
Superoxide radicals were produced by the xanthine/xanthine oxidase system, and the prevention of cyt C reduction by compound B was measured (FIG. 8). […] The spontaneous second order reaction rate constant of superoxide with compound B was calculated from the initial slope to be 8.1*10^2 M^-1 S^-1.

CCOP(=S)(NCCO)OCC [Compound B, 2-hydroxyamido diethyithionophosphate]
oxidation by sodium hypochlorite [1]: complete oxidation of the sulfur group
light production at 8 mM (Human neutrophils (PMNs); 8 mM, 1.5*10^6 cells/ml, control 50,000-63,000): 3500 light units
IC90 (Human neutrophils (PMNs); Homo sapiens, Neutrophil, 3-4*10^5 cells/ml, read-out: concentration required to quench 90% of light production): < 1000 µM
reduction of light emission (Human neutrophils (PMNs); various concentrations): dose dependent reduction of light emission
reduction of PN, comparative [2]: more effective in reducing PN
reduction of cyt C by compound itself [3]: did not reduce cyt C
second order reaction rate constant with superoxide ([3]; calculated from the initial slope): 8.1*10^2 M^-1 S^-1

— patent US6200962A, “Thionophosphate derivatives, process for their preparation and pharmaceutical compositions containing them” (priority 1994, dated 2001)
